Where “and” joins values, the source holds several entries; their conditions need not be identical. Equal entries are not always repeated. Where two headings read alike, the source gives them in different places.
Columns and labels:
HSL = biological target: T1, HSL (Rattus norvegicus, UniProt P15304); experiment: TAG assay ([3H]trioleoylglycerol cleavage); type: biochemical
T1 construct: The partially purified HSL can be stored at −70° C. for 4 to 6 weeks; from tissue; host or cells: rat epididymal fat cells (male Wistar rats)
T1 sequence (P15304 1-768 isoform P15304-2): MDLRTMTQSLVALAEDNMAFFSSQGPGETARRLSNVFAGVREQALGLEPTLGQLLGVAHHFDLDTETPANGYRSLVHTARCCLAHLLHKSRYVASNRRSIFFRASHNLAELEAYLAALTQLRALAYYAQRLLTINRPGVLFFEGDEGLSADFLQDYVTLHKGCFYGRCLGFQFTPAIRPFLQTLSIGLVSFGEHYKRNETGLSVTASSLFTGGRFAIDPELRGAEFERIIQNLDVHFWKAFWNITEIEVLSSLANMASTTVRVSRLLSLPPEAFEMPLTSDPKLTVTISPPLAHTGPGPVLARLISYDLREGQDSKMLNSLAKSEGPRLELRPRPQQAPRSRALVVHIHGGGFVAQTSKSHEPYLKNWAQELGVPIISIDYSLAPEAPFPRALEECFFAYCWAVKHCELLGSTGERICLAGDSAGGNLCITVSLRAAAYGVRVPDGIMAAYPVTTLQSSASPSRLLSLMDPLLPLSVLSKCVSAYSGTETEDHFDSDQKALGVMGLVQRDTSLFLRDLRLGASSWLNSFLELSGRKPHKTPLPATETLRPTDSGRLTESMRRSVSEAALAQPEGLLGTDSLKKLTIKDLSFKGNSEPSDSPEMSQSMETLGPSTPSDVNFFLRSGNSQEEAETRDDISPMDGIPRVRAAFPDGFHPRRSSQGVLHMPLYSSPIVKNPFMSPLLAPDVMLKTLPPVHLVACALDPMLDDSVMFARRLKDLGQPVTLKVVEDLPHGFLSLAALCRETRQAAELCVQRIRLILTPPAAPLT
Method: Isolated rat fat cells are obtained from epididymal fatty tissue from untreated male rats (Wistar, 220-250 g) by collagenase treatment according to published processes. The fat cells from 10 rats are washed three times by flotation with 50 ml each of homogenization buffer ([…], pH 7.4, 0.25 M sucrose, 1 mM ethylenediamine-N,N,N′,N′-tetraacetic acid (EDTA), 1 mM dithiothreitol (DTT), 10 μg/ml of leupeptin, 10 μg/ml of antipain, 20 μg/ml of pepstatin) and finally taken up in 10 ml of homogenization buffer. The fat cells are homogenized in a Teflon-in-glass homogenizer (Braun-Melsungen) by 10 strokes at 1500 rpm and 15° C. […]
For the preparation of the substrate, 25-50 μCi of [^3H]trioleoylglycerol (TAG)(in toluene), 6.8 μMol of unlabeled trioleoylglycerol, and 0.6 mg of phospholipids (phosphatidylcholine/phosphatidylinositol 3:1 w/v) are mixed, dried over N2, and then taken up in 2 ml of 0.1 M potassium dihydrogenphosphate/potassium phosphate buffer (KPi)(pH 7.0) by ultrasonic treatment (Branson 250, microtip, setting 1-2, 2×1 min at a 1 min interval). […] After phase separation, one equivalent of the upper phase (1 ml) is taken and the radioactivity is determined by liquid scintillation measurement.
Substances are customarily tested in four independent batches. […] The IC50 value is calculated by means of an inhibition curve using at least 10 concentrations of the test substance. […]

[1] = biological target: PC-specific phospholipase from Bacillus cereus (Bacillus cereus, UniProt P09598); type: biochemical; conditions: for Increase in the absorption at 481 nm: PLC, 60 min, NAG 0.05 mg/ml
Chain of PC-specific phospholipase from Bacillus cereus (P09598 39-283 limits assumed): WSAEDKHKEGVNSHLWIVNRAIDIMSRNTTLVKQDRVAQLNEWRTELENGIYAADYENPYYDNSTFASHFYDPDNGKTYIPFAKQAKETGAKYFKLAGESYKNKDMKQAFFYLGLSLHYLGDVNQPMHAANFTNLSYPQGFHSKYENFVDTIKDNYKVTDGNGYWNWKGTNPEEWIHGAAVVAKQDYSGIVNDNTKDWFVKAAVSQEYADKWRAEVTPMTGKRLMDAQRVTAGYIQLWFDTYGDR

| SMILES | IC50 (HSL) | Increase in the absorption at 481 nm ([1]; enzyme 10 arb. units) | Increase in the absorption at 481 nm ([1]; enzyme 20 arb. units) | Increase in the absorption at 481 nm ([1]; enzyme 50 arb. units) | Increase in the absorption at 481 nm ([1]; enzyme 75 arb. units) | Increase in the absorption at 481 nm ([1]; enzyme 100 arb. units) | Increase in the absorption at 481 nm ([1]; enzyme 150 arb. units) | Increase in the absorption at 481 nm ([1]; enzyme 200 arb. units) | Increase in the absorption at 481 nm ([1]; enzyme 250 arb. units) | Increase in the absorption at 481 nm ([1]; enzyme 300 arb. units) | Increase in the absorption at 481 nm ([1]; enzyme 400 arb. units) | Activity relative to HSL ([1]; bacterial PC-specific phospholipase, conditions optimized for HSL) |
| --- | --- | --- | --- | --- | --- | --- | --- | --- | --- | --- | --- | --- |
| O=C(CCCCCCCCCCCNc1ccc([N+](=O)[O-])c2nonc12)OCC(O)CO (racemic) [Compound 3] | 15.3 µM and 17.3 µM | – | – | – | – | – | – | – | – | – | – | – |
| O=C(CCCCCCCCCCCNc1ccc([N+](=O)[O-])c2nonc12)OCC(O)CO (stereo not drawn) [Compound (3)] | – | 0 arb. units | 1 ± 1 arb. units | 2 ± 2 arb. units | 2 ± 1 arb. units | 3 ± 1 arb. units | 3 ± 1 arb. units | 5 ± 2 arb. units | 5 ± 2 arb. units | 7 ± 3 arb. units | 10 ± 3 arb. units | virtually inactive |
